Experimental data: PubChem BioAssay AID330 (DTP/NCI, 2004)
Where “and” joins values, the source holds several entries; their conditions need not be identical. Equal values may be shown once. Toxic doses and inconclusive results are not listed.

System: P388 leukemia ip, CD2F1 mice, survival T/C
Assay: NCI In Vivo Anticancer Drug Screen. Data for tumor model P388 Leukemia (intraperitoneal) in CD2F1 (CDF1) mice
Settings: endpoint: median survival time, higher = longer survival
In short: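 Mice carrying the transplanted tumor received test compound or vehicle. Survival was recorded in each group, and the value is the treated-group measurement divided by that of the vehicle-treated control group.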

[1] = dose: 50.0 mg/kg/injection, schedule: Q01DX005 (ip), vehicle: Klucel (hydroxypropylcellulose) (HPC)
[2] = dose: 100.0 mg/kg/injection, schedule: Q01DX005 (ip), vehicle: Klucel (hydroxypropylcellulose) (HPC)
[3] = dose: 200.0 mg/kg/injection, schedule: Q01DX005 (ip), vehicle: Klucel (hydroxypropylcellulose) (HPC)
[4] = dose: 50.0 mg/kg/injection, schedule: Q01DX009 (ip), vehicle: saline
[5] = dose: 100.0 mg/kg/injection, schedule: Q01DX009 (ip), vehicle: saline
[6] = dose: 25.0 mg/kg/injection, schedule: Q01DX009 (ip), vehicle: saline with Tween-80
[7] = dose: 50.0 mg/kg/injection, schedule: Q01DX009 (ip), vehicle: saline with Tween-80
[8] = dose: 100.0 mg/kg/injection, schedule: Q01DX009 (ip), vehicle: saline with Tween-80
[9] = dose: 200.0 mg/kg/injection, schedule: Q01DX009 (ip), vehicle: saline with Tween-80
[10] = dose: 50.0 mg/kg/injection, schedule: Q01DX005 (ip), vehicle: saline with Tween-80
[11] = dose: 100.0 mg/kg/injection, schedule: Q01DX005 (ip), vehicle: saline with Tween-80
[12] = dose: 200.0 mg/kg/injection, schedule: Q01DX005 (ip), vehicle: saline with Tween-80
[13] = dose: 12.5 mg/kg/injection, schedule: Q01DX009 (ip), vehicle: saline with Tween-80
[14] = dose: 25.0 mg/kg/injection, schedule: Q04DX003 (ip), vehicle: saline with Tween-80
[15] = dose: 60.0 mg/kg/injection, schedule: Q01DX005 (ip), vehicle: saline with Tween-80
[16] = dose: 240.0 mg/kg/injection, schedule: Q01DX005 (ip), vehicle: saline with Tween-80

`NC(=O)c1ccc(Cl)cc1C(N)=O` was tested, and the T/C [1] was 99 % of control, the T/C [2] was 105 % of control and the T/C [3] was 99 % of control.

For `ClC(Cl)=Nc1ccc(Cl)cc1Cl`, the T/C [4] was 100 % of control and the T/C [5] was 89 % of control.

For `CCCCOCC1CO1` (stereo unspecified), the T/C [6] was 100 % of control, the T/C [7] was 100 % of control and the T/C [8] was 95 % of control. The T/C [9] was 90 % of control.

In the case of `COC(=O)[C@@H]1[C@H]2CS(=O)(=O)C[C@H]2[C@@H]1C(=O)OC`, the T/C [1] is reported as 99 % of control, the T/C [2] is reported as 96 % of control and the T/C [3] is reported as 100 % of control.

`CC1CN1P(=O)(N1CC=CCC1)N1CC1C` (stereo unspecified) was tested, and the T/C (dose: 22.0 mg/kg/injection, schedule: Q04DX003 (ip), vehicle: saline) was 100 % of control, the T/C (dose: 33.0 mg/kg/injection, schedule: Q01DX009 (ip), vehicle: saline) was 150 % of control and the T/C (dose: 33.0 mg/kg/injection, schedule: Q04DX003 (ip), vehicle: saline) was 113 % of control. For the same molecule, the T/C (dose: 50.0 mg/kg/injection, schedule: Q04DX003 (ip), vehicle: saline) was 122 % of control and the T/C (dose: 75.0 mg/kg/injection, schedule: Q04DX003 (ip), vehicle: saline) was 150 % of control.

`CC(NC(=O)C(N)Cc1ccc(Cl)cc1)P(=O)(O)O` (stereo unspecified) was tested, and the T/C (dose: 12.5 mg/kg/injection, schedule: Q04DX002 (ip), vehicle: saline with Tween-80) was 100 % of control, the T/C (dose: 25.0 mg/kg/injection, schedule: Q04DX002 (ip), vehicle: saline with Tween-80) was 94 % of control and the T/C (dose: 50.0 mg/kg/injection, schedule: Q04DX002 (ip), vehicle: saline with Tween-80) was 103 % of control.

For `CC(C)NC(=O)OCc1c(COC(=O)NC(C)C)c(-c2ccc(Cl)c(Cl)c2)n2c1SCC2`, the T/C (dose: 25.0 mg/kg/injection, schedule: Q01DX005 (ip), vehicle: saline with Tween-80) was 105 % of control, the T/C [10] was 115 % of control and the T/C [11] was 116 % of control and 121 % of control. For the same molecule, the T/C [12] was 117 % of control and 123 % of control and the T/C (dose: 400.0 mg/kg/injection, schedule: Q01DX005 (ip), vehicle: saline with Tween-80) was 122 % of control.

With `CC(CC(=O)c1ccccc1)=NCC(O)CN=C(C)CC(=O)c1ccccc1` (stereo unspecified) the T/C [7] was 96 % of control, the T/C [8] was 94 % of control and the T/C [9] was 93 % of control.

In the case of `O=C(CBr)CC(O)(C(F)(F)F)C(F)(F)F`, the T/C (dose: 3.0 mg/kg/injection, schedule: Q04DX003 (ip), vehicle: saline) is reported as 100 % of control, the T/C (dose: 6.0 mg/kg/injection, schedule: Q04DX003 (ip), vehicle: saline) is reported as 100 % of control and the T/C (dose: 12.0 mg/kg/injection, schedule: Q04DX003 (ip), vehicle: saline) is reported as 91 % of control.

In the case of `CCOC(=O)C1CC(=O)C1C(=O)OCC` (stereo unspecified), the T/C [13] is reported as 104 % of control, the T/C [6] is reported as 103 % of control and the T/C [7] is reported as 100 % of control. The T/C [8] was 100 % of control and the T/C [9] was 101 % of control.

In the case of `COC(=O)C1CCC=CC1Sc1ccccc1` (stereo unspecified), the T/C (dose: 50.0 mg/kg/injection, schedule: Q01DX009 (ip), vehicle: Klucel (hydroxypropylcellulose) (HPC)) is reported as 105 % of control, the T/C (dose: 100.0 mg/kg/injection, schedule: Q01DX009 (ip), vehicle: Klucel (hydroxypropylcellulose) (HPC)) is reported as 106 % of control and the T/C (dose: 200.0 mg/kg/injection, schedule: Q01DX009 (ip), vehicle: Klucel (hydroxypropylcellulose) (HPC)) is reported as 112 % of control.

For `O=Cc1cccc(CC(O)(C(F)(F)F)C(F)(F)F)n1`, the T/C [13] was 95 % of control, the T/C (dose: 12.5 mg/kg/injection, schedule: Q04DX003 (ip), vehicle: saline with Tween-80) was 100 % of control and the T/C [6] was 100 % of control. The T/C [14] was 100 % of control, the T/C [7] was 100 % of control and the T/C (dose: 50.0 mg/kg/injection, schedule: Q04DX003 (ip), vehicle: saline with Tween-80) was 95 % of control.

For `COC(=O)c1ccnc2nc[nH]c12`, the T/C (dose: 100.0 mg/kg/injection, schedule: Q01DX001 (ip), vehicle: water) was 103 % of control, the T/C (dose: 200.0 mg/kg/injection, schedule: Q01DX001 (ip), vehicle: water) was 104 % of control and the T/C (dose: 400.0 mg/kg/injection, schedule: Q01DX001 (ip), vehicle: water) was 104 % of control.

`c1ccc(OC2CCCCC2N2CCOCC2)cc1` (stereo unspecified) was tested, and the T/C (dose: 50.0 mg/kg/injection, schedule: Q01DX009 (ip), vehicle: suspension in saline) was 87 % of control, the T/C (dose: 100.0 mg/kg/injection, schedule: Q01DX009 (ip), vehicle: suspension in saline) was 87 % of control and the T/C (dose: 200.0 mg/kg/injection, schedule: Q01DX009 (ip), vehicle: suspension in saline) was 94 % of control.

`O=NNc1ncccc1OCc1ccccc1` was tested, and the T/C (dose: 12.5 mg/kg/injection, schedule: Q01DX009 (ip), vehicle: water) was 111 % of control and 112 % of control.

`O=C1C2C3C=CC(C2C(=O)N1COP(=O)(O)O)C1C2C(=O)N(COP(=O)(O)O)C(=O)C2C31` (stereo unspecified) was tested, and the T/C (dose: 20.0 mg/kg/injection, schedule: Q01DX009 (ip), vehicle: water) was 112 % of control, the T/C (dose: 40.0 mg/kg/injection, schedule: Q01DX009 (ip), vehicle: water) was 112 % of control and the T/C (dose: 80.0 mg/kg/injection, schedule: Q01DX009 (ip), vehicle: water) was 112 % of control and 90 % of control. The T/C (dose: 160.0 mg/kg/injection, schedule: Q01DX009 (ip), vehicle: water) was 165 % of control and the T/C (dose: 240.0 mg/kg/injection, schedule: Q01DX009 (ip), vehicle: water) was 152 % of control.

In the case of `CN(c1ccccc1)P(=O)(N1CC1)N1CC1`, the T/C (dose: 12.5 mg/kg/injection, schedule: Q01DX009 (ip), vehicle: saline sonified) is reported as 200 % of control, the T/C [14] is reported as 160 % of control and 195 % of control and the T/C (dose: 37.5 mg/kg/injection, schedule: Q04DX003 (ip), vehicle: saline with Tween-80) is reported as 186 % of control.

For `Cc1cc(OCc2nnc3n2S(=O)(=O)c2ccccc2N3c2ccccc2)ccc1Cl`, the T/C (dose: 100.0 mg/kg/injection, schedule: Q04DX002 (ip), vehicle: saline with Tween-80) was 92 % of control, the T/C (dose: 200.0 mg/kg/injection, schedule: Q04DX002 (ip), vehicle: saline with Tween-80) was 92 % of control and the T/C (dose: 400.0 mg/kg/injection, schedule: Q04DX002 (ip), vehicle: saline with Tween-80) was 87 % of control.

In the case of `CCOC(=O)C(CC/C=C(\C)CC/C=C/COC(=O)N(C(C)C)C(C)C)P(=O)(OCC)OCC` (stereo unspecified), the T/C [10] is reported as 109 % of control, the T/C [11] is reported as 106 % of control and the T/C [12] is reported as 109 % of control.

For `CC(=O)OCC12CCC(C)=CC1OC1C(N3CCOCC3)C(O)C2(C)C12CO2` (stereo unspecified), the T/C (dose: 0.62 mg/kg/injection, schedule: Q04DX002 (ip), vehicle: water) was 123 % of control, the T/C (dose: 1.25 mg/kg/injection, schedule: Q04DX002 (ip), vehicle: water) was 123 % of control and the T/C (dose: 2.5 mg/kg/injection, schedule: Q04DX002 (ip), vehicle: water) was 123 % of control.

`COc1ccc(/C=N\NC(=O)CNC(=O)Nc2cccc([N+](=O)[O-])c2)cc1O` was tested, and the T/C (dose: 15.0 mg/kg/injection, schedule: Q01DX005 (ip), vehicle: saline with Tween-80) was 107 % of control, the T/C (dose: 30.0 mg/kg/injection, schedule: Q01DX005 (ip), vehicle: saline with Tween-80) was 93 % of control and the T/C [15] was 89 % of control. For the same molecule, the T/C [16] was 91 % of control and 93 % of control.

`Clc1ccc(C2=NON(c3ncccn3)C3N=CC=CN23)cc1` (stereo unspecified) was tested, and the T/C [15] was 87 % of control, the T/C (dose: 120.0 mg/kg/injection, schedule: Q01DX005 (ip), vehicle: saline with Tween-80) was 91 % of control and the T/C [16] was 99 % of control.

For `CCOC(=O)C(=O)Nc1sc(C)c(C)c1C#N`, the T/C (dose: 50.0 mg/kg/injection, schedule: Q01DX009 (ip), vehicle: saline + alcohol) was 90 % of control, the T/C (dose: 100.0 mg/kg/injection, schedule: Q01DX009 (ip), vehicle: saline + alcohol) was 98 % of control and the T/C (dose: 200.0 mg/kg/injection, schedule: Q01DX009 (ip), vehicle: saline + alcohol) was 105 % of control.

For `Nc1c(/C=C/c2cc3ccc(C4=NCCN4)cc3[nH]2)[nH]c2cc(C3=NCCN3)ccc12`, the T/C (dose: 12.5 mg/kg/injection, schedule: Q01DX005 (ip), vehicle: Klucel (hydroxypropylcellulose) (HPC)) was 111 % of control, the T/C (dose: 25.0 mg/kg/injection, schedule: Q01DX005 (ip), vehicle: Klucel (hydroxypropylcellulose) (HPC)) was 120 % of control and the T/C [1] was 189 % of control. The T/C [2] was 223 % of control.

In the case of `O=C(O)C1Oc2cc3ccccc3cc2O1`, the T/C [4] is reported as 90 % of control, the T/C [5] is reported as 90 % of control and the T/C (dose: 200.0 mg/kg/injection, schedule: Q01DX009 (ip), vehicle: saline) is reported as 97 % of control.
